Measurements from patent publication US6528260B1, “Biallelic markers related to genes involved in drug metabolism” (Genset, S.A., priority 1999, dated 2003).

Tests used:
[1] = system: DME-related biallelic markers; experiment: Genotyping by microsequencing: allele frequencies of DME-related biallelic markers in random Caucasian populations; parameters: species or system human; settings: Caucasian FRENCH
Experimental: The biallelic markers identified as described above were further confirmed and their respective frequencies were determined through microsequencing. Microsequencing was carried out on individual DNA samples obtained as described herein.
Amplification of genomic DNA fragments from individual DNA samples was performed as described in Example 1 using the same set of PCR primers (See Table 17). Microsequencing was carried out on the amplified fragments using specific primers (See Table 16). The preferred primers used in microsequencing had about 19 nucleotides in length and hybridized just upstream of the considered polymorphic base.
The microsequencing reactions were performed as follows: 5 μl of PCR products were added to 5 μl purification mix (2U SAP (Shrimp alkaline phosphate) (Amersham E70092X)); 2U Exonuclease I (Amersham E70073Z); and 1 μl SAP buffer (200 mM Tris-HCl pH8, 100 mM MgCl2) in a microtiter plate. The reaction mixture was incubated 30 minutes at 37° C., and denatured 10 minutes at 94° C. afterwards. To each well was then added 20 μl of microsequencing reaction mixture containing: 10 pmol microsequencing oligonucleotide (19 mers, GENSET, crude synthesis, 5 OD), 1 U Thermosequenase (Amersham E79000G), 1.25 μl Thermosequenase buffer (260 mM Tris HCl pH 9.5, 65 mM MgCl2), and the two appropriate fluorescent ddNTPs complementary to the nucleotides at the polymorphic site corresponding to both polymorphic bases (11.25 nM TAMRA-ddTTP; 16.25 nM ROX-ddCTP; 1.675 nM REG-ddATP; 1.25 nM RHO-ddGTP; Perkin Elmer, Dye Terminator Set 401095). After 4 minutes at 94° C., 20 PCR cycles of 15 sec at 55° C., 5 sec at 72° C., and 10 sec at 94° C. were carried out in a Tetrad PTC-225 thermocycler (MJ Research). The microtiter plate was centrifuged 10 sec at 1500 rpm. The unincorporated dye terminators were removed by precipitation with 19 μl MgCl2 2 mM and 55 μl 100% ethanol. After 15 minute incubation at room temperature, the microtiter plate was centrifuged at 3300 rpm 15 minutes at 4° C. After discarding the supernatants, the microplate was evaporated to dryness under reduced pressure (Speed Vac). Samples were resuspended in 2.5 μl formamide EDTA loading buffer and heated for 2 min at 95° C. 0.8 μl microsequencing reaction were loaded on a 10% (19:1) polyacrylamide sequencing gel. The data were collected by an ABI PRISM 377 DNA sequencer and processed using the GENESCAN software (Perkin Elmer).
The frequencies for both alleles are shown for preferred MGST-II, ME1, UGT1A7 and UGT2B4 markers in Tables 19, 20, 21 and 22, respectively.

[2] = system: smooth muscle in peripheral airways; settings: both in vitro and in vivo; cited from earlier work
[3] = system: serum level of alanine aminotransferase (ALT); experiment: Clinical study of zileuton: hepatotoxicity monitored by serum ALT level; type: in vivo, human; settings: asthmatic individuals treated with zileuton
From the text: In a preferred embodiment, the trait considered was a side-effect upon drug treatment, the study involved two populations derived from a clinical study of the anti-asthmatic drug zileuton. The case population was composed of asthmatic individuals treated with zileuton showing zileuton-associated hepatotoxicity monitored by the serum level of alanine aminotransferase (ALT) and the control population was composed of asthmatic individuals treated with zileuton and having no increased serum level of ALT. Inclusion criteria and association between the biallelic markers of the present invention and zileuton-associated hepatotoxicity are further described below and in Example 4.
Zileuton (Zyflo™) is an active inhibitor of 5-lipoxygenase, the enzyme that catalyzes the formation of leukotrienes from arachidonic acid, indicated for prophylaxis and chronic treatment of asthma. […] In the present invention the ALT test (serum level of alanine aminotransferase) was used, which is considered the most sensitive indicator of liver injury.
Two groups of unrelated individuals were used in this association study in accordance with the invention: the case-control populations. The case population was composed of 89 asthmatic individuals treated with zileuton showing zileuton-associated hepatotoxicity monitored by the serum level of alanine aminotransferase (ALT) and the control population was composed of 208 asthmatic individuals treated with zileuton and having no increased serum ALT level.
The side effect examined in this study was the hepatotoxicity experienced by asthmatic individuals as a result of their treatment with Zileuton as part of a clinical study. […] Hepatotoxicity was monitored by measuring the serum levels of alanine aminotransferase (ALT), which is a sensitive indicator of liver cell damage.
As mentioned above, an association study is more informative if the populations considered present extreme phenotypes. […]

For “12-141-159 (DNA CTCAGTGAGTGAGTTGAAGGGCTYAGTCAACTATTTGTTGATACCAC; allele 24: 12-141-159 : polymorphic base T or C; listed as Homo Sapiens)”, the “allele frequency A” value [1] was 37.5 and the “allele frequency G” value [1] was 62.5.
In the case of `CCCCC/C=C\C\C=C/C=C/C=C/[C@@H](SC[C@H](NC(=O)CC[C@H](N)C(=O)O)C(=O)NCC(=O)O)[C@@H](O)CCCC(=O)O` [LTC4, leukotriene C4], the “bronchoconstrictor potency relative to histamine” value [2] is given as 1000 times.
With “12-143-453 (DNA TGGAGTGGAGCTTGGTTCTGGCCRTGGGCTGGGGAAGGGAGGTCCGG; allele 24: 12-143-453 : polymorphic base A or G; listed as Homo Sapiens)” the “allele frequency A” value [1] was 50.61 and the “allele frequency G” value [1] was 49.39.
For “12-124-194 (DNA TCTAGCTGGAGCCTGCGCTTGAGYAAAGAGCTGAACAACCAGATTGC; allele 24: 12-124-194 : polymorphic base C or T; listed as Homo Sapiens)”, the “allele frequency C” value [1] was 19.41 and the “allele frequency T” value [1] was 80.59.
For “12-142-321 (DNA GCAGCACAGCGGTCTGCGTGGAARTGAGGCACCGGGTGTGGGCGGGG; allele 24: 12-142-321 : polymorphic base A or G; listed as Homo Sapiens)”, the “allele frequency A” value [1] was 54.44 and the “allele frequency G” value [1] was 45.56.
For `CCCCC/C=C\C\C=C/C=C/C=C/[C@@H](SC[C@H](N)C(=O)NCC(=O)O)[C@@H](O)CCCC(=O)O` [LTD4, Leukotriene D4], the “bronchoconstrictor potency relative to histamine” value [2] is listed as 1000 times.
With `CC(c1cc2ccccc2s1)N(O)C(N)=O` (stereo not shown) [Zileuton, zileuton] the “ALT+ population (at least 3 times the upper limit of normal level of ALT) as share of total asthmatic individuals in the study” value ([3]; 89 individuals) was 4%, the “ALT- population (less than 1xULN of ALT) as share of total asthmatic individuals in the study” value ([3]; 208 individuals) was 35% and the “asthmatic individuals that did not experience Zileuton-associated ALT increase” value ([3]; compared to ALT levels prior to zileuton intake) was “More than 90%”.
